Test results taken from US20060247231A1, “Amide and ester matrix metalloproteinase inhibitors” (Warner-Lambert Company LLC, priority 2003, published 2006).

Columns and labels:
Assay type in all cases: biochemical
[1] = target: T1, MMP-13 catalytic domain (MMP-13CD) (Homo sapiens, UniProt P45452); assay: MMP-13 catalytic domain inhibition (Biological Methods 1, 2, or 5)
T1 construct: particularly MMP-13 catalytic domain (“MMP-13CD”)
Procedure: (§1) Thiopeptolide substrates show virtually no decomposition or hydrolysis at or below neutral pH in the absence of a matrix metalloproteinase enzyme. A typical thiopeptolide substrate commonly utilized for assays is Ac-Pro-Leu-Gly-thioester-Leu-Leu-Gly-OEt. A 100 μL assay mixture will contain a suitable amount of the MMP enzyme such as an amount described in Ye Qi-Zhuang, et al., 1996, supra, 50 mM of N-2-hydroxyethylpiperazine-N′-2-ethanesulfonic acid buffer (“HEPES,” pH 7.0), 10 mM CaCl2, 100 μM thiopeptolide substrate, and 1 mM 5,5′-dithio-bis-(2-nitro-benzoic acid) (DTNB). The thiopeptolide substrate concentration may be varied, for example from 10 to 800 μM to obtain Km and Kcat values. The change in absorbance at 405 nm is monitored on a Thermo Max microplate reader (molecular Devices, Menlo Park, Calif.) at room temperature (22° C.). The calculation of the amount of hydrolysis of the thiopeptolide substrate is based on E412=13600 M^−1 cm^−1 for the DTNB-derived product 3-carboxy-4-nitrothiophenoxide. Assays are carried out with and without matrix metalloproteinase inhibitor compounds, and the amount of hydrolysis is compared for a determination of inhibitory activity of the test compounds.
(§2) Test compounds are evaluated at various concentrations in order to determine their respective IC50 values, the micromolar concentration of compound required to cause a 50% inhibition of catalytic activity of the respective enzyme.
(§3) Test compounds can be evaluated according to Biological Method 1 at various concentrations in order to determine their respective IC50 values, typically the micromolar concentration of compound required to cause a 50% inhibition of the hydrolytic activity of the respective enzyme.
(§4) Some representative compounds of Formula I have been evaluated according to Biological Method 1 for their ability to inhibit MMP-13 and other MMP enzymes, including MMP-1, MMP-2, MMP-3, MMP-7, MMP-8, MMP-9, MMP-12, MMP14, and MMP-17. Inhibitor activity versus other MMPs with the compounds may be determined using, for example, MMP-1FL, which refers to full length interstitial collagenase; MMP-2FL, which refers to full length Gelatinase A; MMP-3CD, which refers to the catalytic domain of stromelysin; MMP-7FL, which refers to full length matrilysin; MMP-9FL, which refers to full length Gelatinase B; MMP-13CD, which refers to the catalytic domain of collagenase 3; and MMP-14CD, which refers to the catalytic domain of MMP-14.
(§5) The method of Biological Method 1, except thiopeptolide substrate is replaced with a fluorigenic peptide such as Fluorigenic peptide-1.
Fluorigenic peptide-1 substrate based assay for identifying compounds of Formula I as allosteric inhibitors of MMP-13:
• 50 mM HEPES buffer (pH 7.0) • 10 mM CaCl2 • 10 μM fluorigenic peptide-1 (“FP1”) substrate • 0 or 15 mM acetohydroxamic acid (AcNHOH)=1 Kd • 2% DMSO (with or without inhibitor test compound) • 0.5 nM MMP-13CD enzyme Stock Solutions: • 1) 10× assay buffer: 500 mM HEPES buffer (pH 7.0) plus 100 mM CaCl2 • 2) 10 mM FP1 substrate: (Mca)-Pro-Leu-Gly-Leu-(Dnp)-Dpa-Ala-Arg-NH2 (Bachem, M-1895; “A novel coumarin-labeled peptide for sensitive continuous assays of the matrix metalloproteinases,” Knight C. G., Willenbrock F., and Murphy, G., FEBS Lett., 1992;296:263-266). Is prepared 10 mM stock by dissolving 5 mg FP1 in 0.457 mL DMSO. • 3) 3 M AcNHOH: Is prepared by adding 4 mL H2O and 1 mL 10× assay buffer to 2.25 g AcNHOH (Aldrich 15,903-4). Adjusting pH to 7.0 with NaOH. Diluting volume to 10 mL with H2O. Final solution will contain 3 M AcNHOH, 50 mM HEPES buffer (pH 7.0), and 10 mM CaCl2. • 4) AcNHOH dilution buffer: 50 mM HEPES buffer (pH 7.0) plus 10 mM CaCl2 • 5) MMP-13CD enzyme: Stock concentration=250 nM. • 6) Enzyme dilution buffer: 50 mM HEPES buffer (pH 7.0), 10 mM CaCl2, and 0.005% BRU 35 detergent (Calbiochem 203728; Protein Grade, 10%) Procedure (For One 96-well Microplate): • A. Prepared assay mixture: […]

[2] = target: T2, MMP-12CD (Homo sapiens, UniProt P39900); assay: MMP-12 catalytic domain inhibition (Biological Methods 1, 2, or 5)
T2 construct: MMP-12 catalytic domain (“MMP-12CD”)
Procedure: as §1, §2, §3, §4, §5
(§6) Shown below in Table 1 are the inhibition of MMP-13 catalytic domain, expressed as IC50's, for the compounds of Compound Examples A1 to A8, B1 to B4, and C1 in the column labelled “MMP-13CD IC50 (μM)”.

[3] = target: MMP-3CD (catalytic domain of stromelysin) (Homo sapiens, UniProt P08254); assay: MMP-3 catalytic domain inhibition (Biological Methods 1, 2, or 5)
Procedure: as §1, §2
It should be appreciated that the assay buffer used with MMP-3CD was 50 mM N-morpholinoethane sulfonate (“MES”) at pH 6.0 rather than the HEPES buffer at pH 7.0 described above.
as §3, §4, §5, §6

[4] = target: T3, MMP-17CD (Homo sapiens, UniProt Q9ULZ9); assay: MMP-17 catalytic domain inhibition (Biological Methods 1, 2, or 5)
T3 construct: MMP-17 catalytic domain (“MMP-17CD”)
T3 sequence (Q9ULZ9 126-295 limits assumed): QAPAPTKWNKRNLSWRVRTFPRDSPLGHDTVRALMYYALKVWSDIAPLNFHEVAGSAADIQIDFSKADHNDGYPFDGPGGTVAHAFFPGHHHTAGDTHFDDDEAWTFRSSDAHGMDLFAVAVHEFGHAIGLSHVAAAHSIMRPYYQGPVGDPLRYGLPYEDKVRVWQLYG
Procedure: as §1, §2, §3, §4, §5, §6

[5] = target: T4, MMP-8FL (Homo sapiens, UniProt P22894); assay: MMP-8 full-length inhibition (Biological Methods 1, 2, or 5)
T4 construct: MMP-8 full-length
Procedure: as §1, §2, §3, §4, §5, §6

[6] = target: MMP-14CD (catalytic domain of MMP-14) (Homo sapiens, UniProt P50281); assay: MMP-14 catalytic domain inhibition (Biological Methods 1, 2, or 5)
Procedure: as §1, §2, §3, §4, §5, §6

[7] = target: MMP-9FL (full length Gelatinase B) (Homo sapiens, UniProt P14780); assay: MMP-9 full-length inhibition (Biological Methods 1, 2, or 5)
Procedure: as §1, §2, §3, §4, §5, §6

[8] = target: T5, MMP-1FL (full length interstitial collagenase) (Homo sapiens, UniProt P03956); assay: MMP-1 full-length inhibition (Biological Methods 1, 2, or 5)
T5 sequence (P03956 100-469): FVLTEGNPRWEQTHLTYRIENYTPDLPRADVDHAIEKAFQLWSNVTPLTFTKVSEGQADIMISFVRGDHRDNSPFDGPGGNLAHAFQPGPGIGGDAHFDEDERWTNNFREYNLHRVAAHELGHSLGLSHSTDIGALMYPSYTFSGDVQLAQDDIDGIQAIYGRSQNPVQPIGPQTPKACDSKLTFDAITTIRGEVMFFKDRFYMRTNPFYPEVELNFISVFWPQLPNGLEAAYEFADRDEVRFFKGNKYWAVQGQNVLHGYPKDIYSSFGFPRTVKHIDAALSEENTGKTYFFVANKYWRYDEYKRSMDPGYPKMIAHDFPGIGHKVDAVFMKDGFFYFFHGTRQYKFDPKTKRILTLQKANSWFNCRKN
Procedure: (§7) Thiopeptolide substrates show virtually no decomposition or hydrolysis at or below neutral pH in the absence of a matrix metalloproteinase enzyme. A typical thiopeptolide substrate commonly utilized for assays is Ac-Pro-Leu-Gly-thioester-Leu-Leu-Gly-OEt. A 100 μL assay mixture will contain a suitable amount of the MMP enzyme such as an amount described in Ye Qi-Zhuang, et al., 1996, supra, 50 mM of N-2-hydroxyethylpiperazine-N′-2-ethanesulfonic acid buffer (“HEPES,” pH 7.0), 10 mM CaCl2, 100 μM thiopeptolide substrate, and 1 mM 5,5′-dithio-bis-(2-nitro-benzoic acid) (DTNB). The thiopeptolide substrate concentration may be varied, for example from 10 to 800 μM to obtain Km and Kcat values. The change in absorbance at 405 nm is monitored on a Thermo Max microplate reader (molecular Devices, Menlo Park, Calif.) at room temperature (22° C.). The calculation of the amount of hydrolysis of the thiopeptolide substrate is based on E412=13600 M^−1 cm^−1 for the DTNB-derived product 3-carboxy-4-nitrothiophenoxide. […]
as §4, with “MMP-14. […]” for “MMP-14.”
as §6

[9] = target: T6, MMP-7FL (full length matrilysin) (Homo sapiens, UniProt P09237); assay: MMP-7 full-length inhibition (Biological Methods 1, 2, or 5)
T6 sequence (P09237 95-267): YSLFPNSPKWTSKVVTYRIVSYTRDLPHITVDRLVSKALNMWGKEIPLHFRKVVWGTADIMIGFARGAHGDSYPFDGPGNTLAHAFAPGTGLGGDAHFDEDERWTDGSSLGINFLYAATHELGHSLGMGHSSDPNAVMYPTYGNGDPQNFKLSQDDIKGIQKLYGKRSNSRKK
Procedure: as §7
as §4, with “MMP-14. […]” for “MMP-14.”
as §6

T2 sequence (P39900 106-263 limits assumed): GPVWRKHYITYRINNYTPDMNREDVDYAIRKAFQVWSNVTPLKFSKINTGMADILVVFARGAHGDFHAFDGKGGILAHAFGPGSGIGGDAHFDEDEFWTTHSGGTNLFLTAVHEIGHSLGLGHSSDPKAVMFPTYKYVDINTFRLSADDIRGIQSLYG
Chain of MMP-3CD (catalytic domain of stromelysin) (P08254 100-272 limits assumed): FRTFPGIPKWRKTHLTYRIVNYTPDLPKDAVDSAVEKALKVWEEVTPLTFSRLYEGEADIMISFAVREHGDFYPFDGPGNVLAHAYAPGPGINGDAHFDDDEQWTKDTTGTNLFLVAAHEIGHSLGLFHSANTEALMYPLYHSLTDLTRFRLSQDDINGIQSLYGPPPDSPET
T4 sequence (P22894 101-467): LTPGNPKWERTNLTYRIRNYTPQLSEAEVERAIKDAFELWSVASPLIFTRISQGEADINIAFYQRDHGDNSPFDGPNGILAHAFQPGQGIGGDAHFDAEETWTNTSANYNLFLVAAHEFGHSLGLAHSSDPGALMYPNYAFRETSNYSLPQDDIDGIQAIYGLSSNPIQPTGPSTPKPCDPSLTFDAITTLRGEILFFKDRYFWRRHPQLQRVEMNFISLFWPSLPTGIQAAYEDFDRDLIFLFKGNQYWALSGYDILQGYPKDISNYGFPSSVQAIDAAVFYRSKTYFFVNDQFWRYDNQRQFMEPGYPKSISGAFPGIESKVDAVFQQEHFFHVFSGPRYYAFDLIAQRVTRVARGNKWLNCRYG
Chain of MMP-9FL (full length Gelatinase B) (P14780 94-707): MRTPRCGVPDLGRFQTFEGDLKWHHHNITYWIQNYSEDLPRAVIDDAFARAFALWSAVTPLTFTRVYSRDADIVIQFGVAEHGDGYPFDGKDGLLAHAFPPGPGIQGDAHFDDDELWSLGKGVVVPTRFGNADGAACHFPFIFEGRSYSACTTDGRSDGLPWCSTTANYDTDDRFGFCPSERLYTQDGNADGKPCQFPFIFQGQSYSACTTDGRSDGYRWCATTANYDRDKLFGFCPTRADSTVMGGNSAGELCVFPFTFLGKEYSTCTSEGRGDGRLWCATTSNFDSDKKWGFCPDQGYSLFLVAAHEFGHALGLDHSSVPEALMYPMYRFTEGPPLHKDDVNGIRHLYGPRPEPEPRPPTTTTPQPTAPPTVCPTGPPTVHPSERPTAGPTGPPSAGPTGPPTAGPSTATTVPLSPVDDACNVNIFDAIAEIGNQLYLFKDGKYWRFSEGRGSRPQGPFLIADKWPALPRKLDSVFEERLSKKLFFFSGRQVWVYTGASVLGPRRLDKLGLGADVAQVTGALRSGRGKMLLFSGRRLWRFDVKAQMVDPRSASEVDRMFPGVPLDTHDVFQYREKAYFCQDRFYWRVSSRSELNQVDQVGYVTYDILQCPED

IC50 [1] [µM] | IC50 [2] [µM] | IC50 [3] [µM] | IC50 [4] [µM] | IC50 [5] [µM] | IC50 [6] [µM] | IC50 [7] [µM] | IC50 [8] [µM] | IC50 [9] [µM] | SMILES
0.013 | > 30 | > 65 | > 30 | > 30 | > 30 | > 30 |  |  | COc1ccc(CC(=O)Nc2ccc3ccn(Cc4ccc(C(=O)O)cc4)c(=O)c3c2)cc1 [B2]
0.036 |  | > 100 | > 100 | > 100 | > 30 | > 100 | > 100 | > 100 | O=C(Cc1ccc(F)cc1)Nc1ccc2ncn(Cc3ccc(C(=O)O)cc3)c(=O)c2c1 [A4]
0.1 |  |  |  |  |  |  |  |  | Cc1ccc(CC(=O)Nc2cc3c(=O)n(Cc4ccc(C(=O)O)cc4)cnc3cc2F)cc1 [A7]
0.021 |  |  |  |  |  |  |  |  | O=C(Cc1ccc(O)cc1)Nc1cc2c(=O)n(Cc3ccc(C(=O)O)cc3)cnc2cc1F [A8]
0.048 | > 30 | > 65 | > 30 | > 30 | > 30 | > 30 |  |  | O=C(Cc1ccc(F)cc1)Nc1ccc2ccn(Cc3ccc(C(=O)O)cc3)c(=O)c2c1 [B4]
0.25 |  | > 100 | > 100 | > 100 | > 30 | > 100 | > 100 | > 100 | O=C(Cc1cccc(F)c1)Nc1ccc2ncn(Cc3ccc(C(=O)O)cc3)c(=O)c2c1 [A5]
0.0053 |  |  |  |  |  |  |  |  | COc1ccc(CC(=O)Nc2cc3c(=O)n(Cc4ccc(C(=O)O)cc4)cnc3cc2F)cc1 [A6]
0.053 |  | > 100 | > 100 | > 100 | > 100 |  | > 100 | > 100 | COc1cccc(CC(=O)Nc2cc3c(=O)n(Cc4ccc(C(=O)O)cc4)cnc3cc2F)c1 [A2]
0.053 | > 30 | > 65 | > 30 | > 30 | > 30 | > 30 |  |  | COc1cccc(CC(=O)Nc2ccc3ccn(Cc4ccc(C(=O)O)cc4)c(=O)c3c2)c1 [Compound Example B1, 4-{7-[2-(3-Methoxy-phenyl)-acetylamino]-1-oxo-1H-isoquinolin-2-ylmethyl}-benzoic acid]
0.292 | > 30 | > 65 | > 30 | > 30 | > 30 | > 30 |  |  | O=C(Cc1cccc(F)c1)Nc1ccc2ccn(Cc3ccc(C(=O)O)cc3)c(=O)c2c1 [B3]
0.038 | > 30 | > 65 | > 30 | > 30 | > 30 | > 30 |  |  | COc1cccc(CC(=O)Nc2ccc3ncn(Cc4ccc(C(=O)O)cc4)c(=O)c3c2)c1 [Compound Example A1, 4-{6-[2-(3-Methoxy-phenyl)-acetylamino]-4-oxo-4H-quinazolin-3-ylmethyl}-benzoic acid]
